Converted amounts (≈) assume the structure as drawn. Read-outs that look alike come from different tables or passages of the source.
Key:
[1] = Solubility of HPC in benzyl benzoate/castor oil mixtures; type: physicochemical; settings: for solubility: benzyl benzoate/castor oil mixture, oil or lipid, read-out: mg HPC/mL solution (solubility)
Text: Weight percent of BB is relative to the castor oil.

[2] = Randomized bioavailability study of 17-HPC, SC injection in triceps area (1.1 or 1.2 mL) vs IM injection (1.0 mL); type: in vivo, human; settings: for AUC(0-t) / AUC(0-inf) / Cmax / Tmax / half-life: female, human, plasma; for Cmax: healthy postmenopausal women, read-out: Cmax, geometric mean (geometric CV); for Tmax: read-out: Tmax, median; for half-life: read-out: t½, geometric mean (geometric CV) (converted)
Method: A randomized study is conducted to compare the bioavailability and injection site pain when 17-HPC, 250 mg/mL, is administered as a single 1.0 mL IM injection (250 mg) in the gluteus maximus or a 1.1 (275 mg) or 1.2 mL (300 mg) SQ injection in the triceps area of healthy post-menopausal women. Patients are randomized into two groups by route of administration. Group A receives a 1.0 mL IM injection of 17-HPC into the upper outer quadrant of the gluteus maximus. Group B receives a 1.1 or 1.2 mL SC injection into the upper outer thigh or arm (triceps area). Patient reported outcomes of injection site pain are collected to assess the safety and usability of SQ administration, either by medical staff or for self-administration of 17-HPC.
All patients have blood drawn prior to administration of 17-HPC, and at 2, 4, 8, 12, 18 and 24 hours post dose, and again at approximately the same time as dosing on days 2-7, 14, 21, and 28.

[3] = Single-dose crossover pharmacokinetic study of 17-HPC, SQ (upper anterior thigh) vs IM (gluteus maximus) injection; type: in vivo, human; settings: for AUC(0-t) / Cmax: female, human, single dose, healthy postmenopausal women, plasma; for AUC(0-t): read-out: AUC0-t, LS Geometric Mean; for Cmax: read-out: Cmax, LS Geometric Mean
Method: An open-label, randomized, single-dose, two-period, two-treatment, four-sequence, crossover study was conducted to compare equal 250 mg doses of 17-HPC injections, 250 mg/ml given as either a 1 mL deep IM injection to the upper outer quadrant of the gluteus maximus or a 1 mL SQ injection to the upper anterior thigh. The study was conducted with 12 healthy, non-tobacco using postmenopausal adult women. The subjects were given the SQ injection in one study period and the IM injection in the other study period according to the four-sequence randomization schedule. Blood was taken at 4, 24, 48, 72, 96, 120 and 144-hours post-treatment, and plasma concentrations of 17-HPC were measured. The interval between doses was 21 days. The analytical data were used to estimate the pharmacokinetic parameters AUC0-t, Cmax, and Tmax.

[4] = 25° C., 63.33 wt % BB relative to castor oil
[5] = IM 1.0 mL (250 mg) gluteus maximus
[6] = SC 1.1 mL (275 mg) triceps area
[7] = SC 1.2 mL (300 mg) triceps area
[8] = 250 mg SQ thigh vs 250 mg IM gluteus maximus
[9] = subcutaneous, SQ injection 250 mg (1 mL) upper anterior thigh
[10] = IM injection 250 mg (1 mL) gluteus maximus

In the case of `CCCCCC(=O)O[C@]1(C(C)=O)CC[C@H]2[C@@H]3CCC4=CC(=O)CC[C@]4(C)[C@H]3CC[C@@]21C` [17-HPC, 17-alpha-hydroxyprogesterone caproate], the “Avg. HPC wt % (solubility)” value ([1]; 5° C., 53.01 wt % BB relative to castor oil) is reported as 18.60 wt %, the “Avg. HPC wt % (solubility)” value ([1]; 5° C., 63.33 wt % BB relative to castor oil) is reported as 20.31 wt % and the “Avg. HPC wt % (solubility)” value ([1]; 5° C., 69.43 wt % BB relative to castor oil) is reported as 21.62 wt %. The “Avg. HPC wt % (solubility)” value ([1]; 5° C., 75.59 wt % BB relative to castor oil) was 23.00 wt %, the “Avg. HPC wt % (solubility)” value ([1]; 5° C., 81.79 wt % BB relative to castor oil) was 24.65 wt % and the “Avg. HPC wt % (solubility)” value ([1]; 5° C., 87.91 wt % BB relative to castor oil) was 25.22 wt %. For the same compound, the “Avg. HPC wt % (solubility)” value ([1]; 15° C., 53.01 wt % BB relative to castor oil) was 20.49 wt %, the “Avg. HPC wt % (solubility)” value ([1]; 15° C., 63.33 wt % BB relative to castor oil) was 22.96 wt % and the “Avg. HPC wt % (solubility)” value ([1]; 15° C., 69.43 wt % BB relative to castor oil) was 24.28 wt %. For the same compound, the “Avg. HPC wt % (solubility)” value ([1]; 15° C., 75.59 wt % BB relative to castor oil) was 25.97 wt %, the “Avg. HPC wt % (solubility)” value ([1]; 15° C., 81.79 wt % BB relative to castor oil) was 27.32 wt % and the “Avg. HPC wt % (solubility)” value ([1]; 15° C., 87.91 wt % BB relative to castor oil) was 28.30 wt %. For the same compound, the “Avg. HPC wt % (solubility)” value ([1]; 25° C., 53.01 wt % BB relative to castor oil) was 24.08 wt %, the “Avg. HPC wt % (solubility)” value [1, 4] was 27.17 wt % and the “Avg. HPC wt % (solubility)” value ([1]; 25° C., 69.43 wt % BB relative to castor oil) was 28.76 wt %. The “Avg. HPC wt % (solubility)” value ([1]; 25° C., 75.59 wt % BB relative to castor oil) was 30.62 wt %, the “Avg. HPC wt % (solubility)” value ([1]; 25° C., 81.79 wt % BB relative to castor oil) was 31.98 wt % and the “Avg. HPC wt % (solubility)” value ([1]; 25° C., 87.91 wt % BB relative to castor oil) was 33.26 wt %. For the same compound, the “solubility data over multiple days” value ([1]; BB/castor oil with and without benzyl alcohol, 5, 15, 25° C., over 5 days) was “fairly constant”, the solubility ([1]; 5 °C, 5° C., 53.01 wt % BB relative to castor oil) was 200 mg/mL (≈ 467 mM) and the solubility ([1]; 5 °C, 5° C., 63.33 wt % BB relative to castor oil) was 222 mg/mL (≈ 518 mM). For the same compound, the solubility ([1]; 5 °C, 5° C., 69.43 wt % BB relative to castor oil) was 238 mg/mL (≈ 555 mM), the solubility ([1]; 5 °C, 5° C., 75.59 wt % BB relative to castor oil) was 253 mg/mL (≈ 590 mM) and the solubility ([1]; 5 °C, 5° C., 81.79 wt % BB relative to castor oil) was 273 mg/mL (≈ 637 mM). The solubility ([1]; 5 °C, 5° C., 87.91 wt % BB relative to castor oil) was 284 mg/mL (≈ 663 mM), the solubility ([1]; 15 °C, thermodynamic from solid, 15° C., 53.01 wt % BB relative to castor oil) was 220 mg/mL (≈ 513 mM) and the solubility ([1]; 15 °C, thermodynamic from solid, 15° C., 63.33 wt % BB relative to castor oil) was 254 mg/mL (≈ 593 mM). For the same compound, the solubility ([1]; 15 °C, thermodynamic from solid, 15° C., 69.43 wt % BB relative to castor oil) was 269 mg/mL (≈ 628 mM), the solubility ([1]; 15 °C, thermodynamic from solid, 15° C., 75.59 wt % BB relative to castor oil) was 289 mg/mL (≈ 674 mM) and the solubility ([1]; 15 °C, thermodynamic from solid, 15° C., 81.79 wt % BB relative to castor oil) was 306 mg/mL (≈ 714 mM). It also gave a solubility ([1]; 15 °C, thermodynamic from solid, 15° C., 87.91 wt % BB relative to castor oil) of 320 mg/mL (≈ 747 mM), a solubility ([1]; 25 °C, 25° C., 69.43 wt % BB relative to castor oil) of 321 mg/mL (≈ 749 mM) and a solubility ([1]; 25 °C, 25° C., 75.59 wt % BB relative to castor oil) of 347 mg/mL (≈ 810 mM). The solubility ([1]; 25 °C, 25° C., 81.79 wt % BB relative to castor oil) was 363 mg/mL (≈ 847 mM), the solubility ([1]; 25 °C, 25° C., 87.91 wt % BB relative to castor oil) was 382 mg/mL (≈ 891 mM) and the solubility ([1]; 25 °C, thermodynamic from solid, 25° C., 53.01 wt % BB relative to castor oil) was 262 mg/mL (≈ 611 mM). The solubility [1, 4] was 303 mg/mL (≈ 707 mM), the “[…]z, geometric mean (geometric CV)” value [2, 5] was 0.0031 (37.3) [11] 1/hr and the “[…]z, geometric mean (geometric CV)” value [2, 6] was 0.0031 (26.8) [17] 1/hr. The “[…]z, geometric mean (geometric CV)” value [2, 7] was 0.0031 (38.4) [14] 1/hr, the “AUC(0-t) Least Squares Geometric Mean Ratio, Estimate” value ([2]; SC (1.1 mL) vs. IM (1.0 mL)) was 103.64% and the “AUC(inf) Least Squares Geometric Mean Ratio, Estimate” value ([2]; SC (1.1 mL) vs. IM (1.0 mL)) was 100.71%. For the same compound, the “Cmax Least Squares Geometric Mean Ratio, Estimate” value ([2]; SC (1.1 mL) vs. IM (1.0 mL)) was 123.42%, the “AUC(0-t) Least Squares Geometric Mean Ratio, Estimate” value ([2]; SC (1.1 mL) vs. SC (1.2 mL)) was 94.40% and the “AUC(inf) Least Squares Geometric Mean Ratio, Estimate” value ([2]; SC (1.1 mL) vs. SC (1.2 mL)) was 91.63%. The “Cmax Least Squares Geometric Mean Ratio, Estimate” value ([2]; SC (1.1 mL) vs. SC (1.2 mL)) was 107.50%, the “AUC(0-t) Least Squares Geometric Mean Ratio, Estimate” value ([2]; SC (1.2 mL) vs. IM (1.0 mL)) was 109.78% and the “AUC(inf) Least Squares Geometric Mean Ratio, Estimate” value ([2]; SC (1.2 mL) vs. IM (1.0 mL)) was 109.91%. For the same compound, the “Cmax Least Squares Geometric Mean Ratio, Estimate” value ([2]; SC (1.2 mL) vs. IM (1.0 mL)) was 114.81%, the AUC(0-t) ([2]; im, 250 mg, IM 1.0 mL (250 mg) gluteus maximus, read-out: AUC(0-t), Least Squares Geometric Mean) was 2680 ng·h/mL and the AUC(0-t) ([2]; im, 250 mg, IM 1.0 mL (250 mg) gluteus maximus, read-out: AUC(0-t), geometric mean (geometric CV)) was 2680 ng·h/mL. The AUC(0-inf) ([2]; im, 250 mg, IM 1.0 mL (250 mg) gluteus maximus, read-out: AUC(inf), Least Squares Geometric Mean) was 2910 ng·h/mL, the AUC(0-inf) ([2]; im, 250 mg, IM 1.0 mL (250 mg) gluteus maximus, read-out: AUC(inf), geometric mean (geometric CV)) was 2910 ng·h/mL and the AUC(0-t) ([2]; sc, 275 mg, SC 1.1 mL (275 mg) arm, read-out: AUC(0-t), Least Squares Geometric Mean) was 2770 ng·h/mL. It also gave an AUC(0-inf) ([2]; sc, 275 mg, SC 1.1 mL (275 mg) arm, read-out: AUC(inf), Least Squares Geometric Mean) of 2930 ng·h/mL, an AUC(0-t) ([2]; sc, 275 mg, SC 1.1 mL (275 mg) triceps area, read-out: AUC(0-t), geometric mean (geometric CV)) of 2770 ng·h/mL and an AUC(0-inf) ([2]; sc, 275 mg, SC 1.1 mL (275 mg) triceps area, read-out: AUC(inf), geometric mean (geometric CV)) of 2940 ng·h/mL. The AUC(0-t) ([2]; sc, 300 mg, SC 1.2 mL (300 mg) arm, read-out: AUC(0-t), Least Squares Geometric Mean) was 2940 ng·h/mL, the AUC(0-inf) ([2]; sc, 300 mg, SC 1.2 mL (300 mg) arm, read-out: AUC(inf), Least Squares Geometric Mean) was 3200 ng·h/mL and the AUC(0-t) ([2]; sc, 300 mg, SC 1.2 mL (300 mg) triceps area, read-out: AUC(0-t), geometric mean (geometric CV)) was 2940 ng·h/mL. The AUC(0-inf) ([2]; sc, 300 mg, SC 1.2 mL (300 mg) triceps area, read-out: AUC(inf), geometric mean (geometric CV)) was 3200 ng·h/mL, the Cmax [2, 5] was 7.08 ng/mL and the Tmax [2, 5] was 120 h. The half-life [2, 5] was 220 h, the Cmax [2, 6] was 8.74 ng/mL and the Tmax [2, 6] was 24 h. It also gave a half-life [2, 6] of 223 h, a Cmax [2, 7] of 8.13 ng/mL and a Tmax [2, 7] of 48 h. The half-life [2, 7] was 225 h, the “AUC0-t LSGM Ratio A (SQ) vs B (IM)” value [3, 8] was 73.85% and the “Cmax LSGM Ratio A (SQ) vs B (IM)” value [3, 8] was 68.39%. For the same compound, the AUC(0-t) [3, 9] was 458 ng·h/mL, the Cmax [3, 9] was 4.2 ng/mL and the AUC(0-t) [3, 10] was 621 ng·h/mL. It also gave a Cmax [3, 10] of 6.14 ng/mL.

Reference: US11304962B2, “Methods of reducing risk of preterm birth” (COVIS Pharma GmbH, priority 2015, dated 2022)
